Laboratory results as given in patent US9782361B2 (Katholieke Universiteit Leuven, priority 2011, dated 2017).

Legend:
[1] = tested on: PTZ-induced seizures in zebrafish larvae; experiment: Zebrafish PTZ seizure assay (videotracking of larval locomotor activity); format: in vivo
Description: Zebrafish larvae from 7-dpf were tracked using the ViewPoint VideoTrack System for Zebrafish™ (Version 2.3.1.0, ViewPoint, France). The system consists of an infrared light source, a high-resolution digital videocamera to capture larval movements within a defined time period (30 minutes in our experimental set-up) and the software to analyze larval locomotor activity (FIG. 1).
The highest concentration tested corresponds to the previously determined MTC. Zebrafish larvae were placed in a 96-well plate (tissue culture plate, flat bottom, FALCON®, USA); one larva per well. Each row of the plate (12 wells) comprised different treatment groups. Two adjacent rows contain the same compound but received two different treatments: a) first row, embryo medium (DMSO 1%), and b) second row, PTZ 20 mM. The first two rows of the plate (vehicle control group, where vehicle was embryo medium) contained a volume of 100 μl of embryo medium (1% DMSO) per well. The following three test groups (two rows each) contained 100 μl of different concentrations of test compound in embryo medium. The larvae thus treated were incubated at room temperature in dark and quiet conditions for 1 hour. Embryo medium (100 μl) was added to the first rows of each one of the four groups. Likewise, 100 μl of PTZ 40 mM were added to the second rows of each treatment group (final concentration of PTZ: 20 mM). Thus, the movement pattern of the exposed zebrafish larvae was video-tracked and assessed in presence of embryo medium (1% DMSO) and PTZ 20 mM. Videotracking of larval movements was started 5 minutes after addition of embryo medium or PTZ to the wells and was recorded for 30 minutes. A total of 8 wells in each plate were left without larvae (medium only) as a negative control, so that each experimental parameter consisted of an average of 10 to 12 larvae. The tracker software measured three periods of 10 minutes of larvae movement. Results were registered as the average value of the total time of larvae movement during 30 minutes. The figures shown are representative of a series of two similar experiments.
All statistical analyses were performed using GraphPad Prism 5 software (GraphPad Software, Inc.). Values were presented as means±standard deviation (SD). The locomotor activity of zebrafish larvae was analyzed using one-way ANOVA followed by Dunnett's multiple comparison test. Statistically significant differences (p<0.05) between a treated group and the equivalent control groups (vehicle or PTZ) were considered indicative of decrease or increase in locomotor activity of zebrafish larvae. For mouse experiments, significant differences between estimated time intervals prior to above-mentioned seizure stages were calculated using the unpaired Student's t-test.

[2] = tested on: PTZ-induced seizures in mice; experiment: Mouse PTZ-induced seizure assay (PTZ tail vein infusion); format: in vivo
Description: Mice were randomly divided into groups of five animals (vehicle (where vehicle was polyethylene glycol 200 (PEG200):water 1:1) and sample). The animals were pre-warmed under an infrared lamp for 10 minutes to dilate the tail veins. They were then placed in a restrainer and the lateral tail vein was catheterized with 1-cm long, 29-gauge needle. The needle was secured to the tail with surgical tape after confirming a correct placement. The needle was attached to a 0.7-m long polyethylene tubing connected to two 2.5-ml glass syringes containing: a) sample (control vehicle or test compounds) and b) PTZ (7.5 mg/ml ddH2O). These syringes were mounted on an infusion pump (ALADOIN-1000 11 VDC, 0.75 Å, World Precision Instruments). Thus, 100 μL of control vehicle (PEG 200: ddH2O 1:1) or test compounds (turmeric oil and ar-turmerone) were IV infused at the rate of 50 μl/min for 2 minutes. Ten minutes later, mice were released from the restrainer and placed in a transparent plastic cage for observation.
PTZ was constantly infused at the rate of 150 μl/min. Seizure manifestation stages in mice were scored according to the time between the start of PTZ infusion and the following behavioral events: ear, tail and myoclonic twitch, forelimb clonus, falling, tonic hindlimb extension and death (28). Behavior was observed up to 5 minutes of PTZ infusion. In case of any surviving mice, they were sacrificed.
PTZ doses were calculated according to the formula: PTZ dose [mg/kg]=(PTZ concentration [mg/ml]×infusion rate [ml/s]×infusion duration [s]×1000)/mouse weight [g]). All work solutions contained heparine (20 μl/ml).
All statistical analyses were performed using GraphPad Prism 5 software (GraphPad Software, Inc.). Values were presented as means±standard deviation (SD). […] For mouse experiments, significant differences between estimated time intervals prior to above-mentioned seizure stages were calculated using the unpaired Student's t-test.

[3] = tested on: 6 Hz corneal stimulation-induced seizures in mice; experiment: 6 Hz psychomotor seizure model of partial epilepsy; format: in vivo, mouse
Description: For assessing the anti-convulsant activity of ar-Tumerone, the 6 Hz psychomotor seizure model of partial epilepsy (Barton M. E. et al., 2001) was used, thereby applying the following stimulation parameters: 6 Hz, 0.2 ms rectangular pulse width, 3 s duration.
Every mouse (male NMRI+/−30 g) was administered the compound (ar-tumerone 50 mg/kg, 20 mg/kg, 1 mg/kg and 100 μg/kg) or vehicle (PEG 200:DMSO 1:1) via i.p. injection. After 30 minutes of incubation, seizures were induced via corneal stimulation using the Ugo-Basil device. Prior to the placement of corneal electrodes, a drop of 0.5% xylocaine was applied to the eyes of the animal. Animals were restrained manually and released immediately in a transparent plastic cage following the stimulation. Then, the animal was observed. The seizure was characterized by stun, forelimb clonus, twitching of vibrissae, straub-tail for at least 45 s. Protection was defined as the absence of a seizure. A minimum of six animals per dose was used. […] Negative control (only vehicle) and positive control (valproic acid 300 mg/kg) were included as well. As expected, 6 out of 6 mice treated with only vehicle were not protected and 6 out of 6 mice treated with valproic acid were protected.

[4] = 10 μg/mL, 1 hour pre-incubation, PTZ 20 mM, 30 min tracking
[5] = 46 μM, PTZ 20 mM, 30 min tracking

Molecule: O=C1NC(=O)C(c2ccccc2)(c2ccccc2)N1 [phenytoin, reference compound]
- anticonvulsant activity (decrease of PTZ-induced seizure movements) ([1]; 75 μg/ml, PTZ 20 mM, 30 min tracking): significant activity
- anticonvulsant activity (decrease of PTZ-induced seizure movements) ([1]; 252.26 μg/ml, PTZ 20 mM, 30 min tracking): significant activity

Molecule: CN1C(=O)CN=C(c2ccccc2)c2cc(Cl)ccc21 [diazepam, reference compound]
- anticonvulsant activity (decrease of PTZ-induced seizure movements) ([1]; 1.42 μg/ml, PTZ 20 mM, 30 min tracking): decreased PTZ-induced movements
- anticonvulsant activity (decrease of PTZ-induced seizure movements) ([1]; 14.23 μg/ml, PTZ 20 mM, 30 min tracking): decreased PTZ-induced movements

Molecule: CC(C)=CC(=O)C[C@H](C)c1ccc(C)cc1 [ar-turmerone]
- anticonvulsant activity (decrease of PTZ-induced seizure movements) [1, 4]: Significant decrease of the seizures triggered by PTZ
- anticonvulsant activity (decrease of PTZ-induced seizure movements) [1, 5]: anticonvulsant activity
- required dose of PTZ to trigger all assessed events ([2]; 50 mg/kg infused, tonic hindlimb extension p<0.05, other events and death p<0.01): significant resistance to the generation of seizures
- PTZ dose for generating seizure behaviors ([2]; 200 mg/kg, ear, tail and myoclonic twitch, tonic hind limb extension and death (p<0.05)): significant PTZ dose increase
- mice protected from seizures ([3]; 100 μg/kg i.p., 30 minutes before stimulation, n=6): Six out of six
- mice protected from seizures ([3]; 1 mg/kg i.p., 30 minutes before stimulation, n=6): Six out of six
- mice protected from seizures ([3]; 20 mg/kg i.p., 30 minutes before stimulation, n=6): Six out of six
- mice protected from seizures ([3]; 50 mg/kg i.p., 30 minutes before stimulation, n=6): Six out of six

Molecule: α-atlantone
- anticonvulsant activity (decrease of PTZ-induced seizure movements) ([1]; 5 μg/mL, 1 hour pre-incubation, PTZ 20 mM, 30 min tracking): Significant decrease of the seizures triggered by PTZ
- anticonvulsant activity (decrease of PTZ-induced seizure movements) [1, 4]: Significant decrease of the seizures triggered by PTZ
- anticonvulsant activity (decrease of PTZ-induced seizure movements) ([1]; 23 μM, PTZ 20 mM, 30 min tracking): anticonvulsant activity
- anticonvulsant activity (decrease of PTZ-induced seizure movements) [1, 5]: anticonvulsant activity

Molecule: COc1cc(/C=C/C(=O)CC(=O)/C=C/c2ccc(O)c(OC)c2)ccc1O [curcumin, reference compound]
- anticonvulsant activity (decrease of PTZ-induced seizure movements) ([1]; concentration not given): potent activity in inhibiting PTZ-induced seizures

Molecule: CCCC(CCC)C(=O)[O-].[Na+] [sodium valproate, reference compound]
- anticonvulsant activity (decrease of PTZ-induced seizure movements) ([1]; concentration not given): able to control seizures generation
- delay of seizure behaviors (PTZ tail infusion) ([2]; 50 mg/kg, tonic hindlimb extension p<0.01, death p<0.05): capable of delaying tonic hindlimb extension

Molecule: CCCC(CCC)C(=O)O [valproic acid, reference compound]
- mice protected from seizures ([3]; 300 mg/kg, positive control): 6 out of 6
